Laboratory results: patent publication US4448714A, “Antibiotic polypeptide compounds prepared from staphlococcus bacteria” (priority 1979, dated 1984)

Test system: S. Epidermidis NCIB 11536
Assay: Antibiotic sensitivities of the producer strain (disc)
Assay type: cell-based
Conditions: 5 μg disc; strain characteristics table

CO[C@@H]1[C@@H](OC(N)=O)[C@@H](O)[C@H](Oc2ccc3c(O)c(NC(=O)c4ccc(O)c(CC=C(C)C)c4)c(=O)oc3c2C)OC1(C)C [novobiocin]
Novobiocin sensitivity: sensitive
